Test results from PubChem BioAssay AID1845197 (Molecular Pharmacology Branch, DTP, NCI, 2023).

System: 349418-098-R tumor spheroid viability
Experiment: Anticancer human tumor 349418-098-R patient-derived lung adenocarcinoma cell line growth inhibition
Conditions: spheroids with HUVEC and MSC; for IC50: curve of first compound; for viability, T/C: stronger effect = lower value; active = viability on the fitted dose curve at most 10% of control; inactive = the rest
How it was run: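 Complex tumor spheroids combined malignant cells with endothelial cells and mesenchymal stem cells. DNA-damaging drugs and DNA repair inhibitors were tested alone and in combination, at half-log dilutions down from clinical Cmax (top 10 microM if Cmax unknown), 0.25% DMSO final.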
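Also: spheroids exposed to compound for 7 days before measurement.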
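For viability, T/C in this document: percent of vehicle control viability with 100% = DMSO-treated spheroids.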

CC1COCCN1c1cc(-c2ccnn2C)c2ccnc(-c3ccn[nH]3)c2n1 (stereo not given) + COc1cc2c(cc1O)CCNC21CSC2c3c(OC(C)=O)c(C)c4c(c3C(COC1=O)N1C(O)C3Cc5cc(C)c(OC)c(O)c5C(C21)N3C)OCO4
inactive: viability, T/C (second compound 30 pM, first compound 0.0316 µM) 88.5% | viability, T/C (second compound 30 pM, first compound 0.1 µM) 24.3% | viability, T/C (second compound 30 pM, first compound 0.316 µM) 13.4% | viability, T/C (second compound 30 pM, first compound 1 µM) 12.1% | viability, T/C (second compound 30 pM, first compound 3.16 µM) 12.2% | viability, T/C (second compound 30 pM, first compound 10 µM) 11.8% | viability, T/C (second compound 94.9 pM, first compound 0.0316 µM) 54.9% | viability, T/C (second compound 94.9 pM, first compound 0.1 µM) 16.2% | viability, T/C (second compound 94.9 pM, first compound 0.316 µM) 9.93% | viability, T/C (second compound 94.9 pM, first compound 1 µM) 10.6% | viability, T/C (second compound 94.9 pM, first compound 3.16 µM) 12.4% | viability, T/C (second compound 94.9 pM, first compound 10 µM) 10.6% | viability, T/C (second compound 0.0003 µM, first compound 0.0316 µM) 12%
active: viability, T/C (second compound 0.0003 µM, first compound 0.1 µM) 4.5% | viability, T/C (second compound 0.0003 µM, first compound 0.316 µM) 5.77% | viability, T/C (second compound 0.0003 µM, first compound 1 µM) 6.89% | viability, T/C (second compound 0.0003 µM, first compound 3.16 µM) 7.2% | viability, T/C (second compound 0.0003 µM, first compound 10 µM) 7.37% | viability, T/C (second compound 0.000949 µM, first compound 0.0316 µM) 0.38% | viability, T/C (second compound 0.000949 µM, first compound 0.1 µM) 0.68% | viability, T/C (second compound 0.000949 µM, first compound 0.316 µM) 0.46% | viability, T/C (second compound 0.000949 µM, first compound 1 µM) 0.39% | viability, T/C (second compound 0.000949 µM, first compound 3.16 µM) 0.25% | viability, T/C (second compound 0.000949 µM, first compound 10 µM) 0.23% | viability, T/C (second compound 0.003 µM, first compound 0.0316 µM) 1.52% | viability, T/C (second compound 0.003 µM, first compound 0.1 µM) 1.22% | viability, T/C (second compound 0.003 µM, first compound 0.316 µM) 1.66% | viability, T/C (second compound 0.003 µM, first compound 1 µM) 1.39% | viability, T/C (second compound 0.003 µM, first compound 3.16 µM) 1.43% | viability, T/C (second compound 0.003 µM, first compound 10 µM) 1.5%
0.0365 µM: IC50 (second compound 94.9 pM)
0.0631 µM: IC50 (second compound 30 pM)
< 0.0316 µM: IC50 (second compound 0.0003 µM) | IC50 (second compound 0.000949 µM) | IC50 (second compound 0.003 µM)

CC(C)n1c(=O)n(C)c2cnc3cc(F)c(-c4ccc(OCCCN5CCCCC5)nc4)cc3c21 + Cn1nnc2c(C(N)=O)ncn2c1=O
8.48 µM: IC50 (second compound 100 µM)
9.75 µM: IC50 (second compound 1 µM)
9.25 µM: IC50 (second compound 10 µM)
9 µM: IC50 (second compound 3.16 µM)
inactive: viability, T/C (second compound 1 µM, first compound 0.0316 µM) 104% | viability, T/C (second compound 1 µM, first compound 0.1 µM) 99.5% | viability, T/C (second compound 1 µM, first compound 0.316 µM) 101% | viability, T/C (second compound 1 µM, first compound 1 µM) 101% | viability, T/C (second compound 1 µM, first compound 3.16 µM) 103% | viability, T/C (second compound 1 µM, first compound 10 µM) 48.8% | viability, T/C (second compound 3.16 µM, first compound 0.0316 µM) 102% | viability, T/C (second compound 3.16 µM, first compound 0.1 µM) 105% | viability, T/C (second compound 3.16 µM, first compound 0.316 µM) 103% | viability, T/C (second compound 3.16 µM, first compound 1 µM) 103% | viability, T/C (second compound 3.16 µM, first compound 3.16 µM) 102% | viability, T/C (second compound 3.16 µM, first compound 10 µM) 44.7% | viability, T/C (second compound 10 µM, first compound 0.0316 µM) 98.6% | viability, T/C (second compound 10 µM, first compound 0.1 µM) 103% | viability, T/C (second compound 10 µM, first compound 0.316 µM) 99.6% | viability, T/C (second compound 10 µM, first compound 1 µM) 103% | viability, T/C (second compound 10 µM, first compound 3.16 µM) 104% | viability, T/C (second compound 10 µM, first compound 10 µM) 46.3% | viability, T/C (second compound 31.6 µM, first compound 0.0316 µM) 102% | viability, T/C (second compound 31.6 µM, first compound 0.1 µM) 106% | viability, T/C (second compound 31.6 µM, first compound 0.316 µM) 98.4% | viability, T/C (second compound 31.6 µM, first compound 1 µM) 105% | viability, T/C (second compound 31.6 µM, first compound 3.16 µM) 105% | viability, T/C (second compound 31.6 µM, first compound 10 µM) 43.9% | viability, T/C (second compound 100 µM, first compound 0.0316 µM) 103% | viability, T/C (second compound 100 µM, first compound 0.1 µM) 107% | viability, T/C (second compound 100 µM, first compound 0.316 µM) 105% | viability, T/C (second compound 100 µM, first compound 1 µM) 102% | viability, T/C (second compound 100 µM, first compound 3.16 µM) 102% | viability, T/C (second compound 100 µM, first compound 10 µM) 41.3%
8.89 µM: IC50 (second compound 31.6 µM)
